# Measurements published in patent publication US10039798B2, “Extracts of rosemary or hemerocallis fulva and methods of using same to promote circadian rhythm” (IN Ingredients, Inc., priority 2013, dated 2018).
# What was measured:
# Type in all cases: cell-based, Porcine
# Conditions in all cases: 1 μM, 5 μM or 20 μM, 24 hr at 37° C.
# SIRT1 = SIRT1 immunofluorescence in iPEC-1 cells treated with ursolic acid
# Protocol: (§1) iPEC-1 cells were grown as a monolayer in DMEM with 10% fetal bovine serum (FBS) and the necessary supplements at 37° C. in a humidified incubator with 5% CO2. iPEC1 cells were seeded on 35 mm dishes. Experiments were initiated 48 hr after plating. Cells were treated with saline or with ursolic acid at three separate dosages (1 μM; 5 μM; or 20 μM) in the medium for 24 hr at 37° C. The cells were then washed with ice-cold PBS and fixed with 4% paraformaldehyde for 10 min at room temperature followed by permeabilization with 0.3% Triton X-100 for 10 min. After being washed with PBS three times, cells were incubated for 1 hr in PBS containing 10% normal goat serum blocking solution. The cells were subjected to immunofluorescence staining with the target specific antibodies (SIRT1, CLOCK and Bmal1) overnight at 4° C. The cells were then washed with cold PBS three times for 3 min each, and incubated with Alexa-labeled secondary antibodies (Invitrogen) at room temperature for 1 h. The cells were examined by fluorescence microscopy (a Nikon TE2000-S microscope, Nikon, Tokyo, Japan).
# CLOCK = CLOCK immunofluorescence in iPEC-1 cells treated with ursolic acid
# Protocol: as §1
# Bmal1 = Bmal1 immunofluorescence in iPEC-1 cells treated with ursolic acid
# Protocol: as §1
smiles,measurement,setting,value
C[C@H]1[C@H](C)CC[C@]2(C(=O)O)CC[C@]3(C)C(=CC[C@@H]4[C@@]5(C)CC[C@H](O)C(C)(C)[C@@H]5CC[C@]43C)[C@H]12 [ursolic acid],intensity of immunofluorescence of SIRT1 compared with controls,SIRT1,significantly induced the intensity of immunofluorescence
same,intensity of immunofluorescence of CLOCK compared with controls,CLOCK,significantly induced the intensity of immunofluorescence
same,intensity of immunofluorescence of Bmal1 compared with controls,Bmal1,significantly induced the intensity of immunofluorescence
